Test results reported in article PMC5145181, “Structural Mapping and Functional Characterization of Zebrafish Class B G-Protein Coupled Receptor (GPCR) with Dual Ligand Selectivity towards GLP-1 and Glucagon” (PLoS ONE, 2016).

Assays:
[1] = system: zfGPCR (dual zfGLP-1R/GCGR); assay: Intracellular cAMP in COS-7 cells expressing recombinant zfGPCR; type: cell-based, zebrafish (Danio rerio); conditions: 20 min at 37°C, pH 7.4, 1 mM 1-methyl-3-isobutylxanthine, enzyme immunoassay; n = 9 zfGLP-1, n = 5 hGLP-1, zf glucagon, h glucagon, n = 3 exendin-4, n = 6 zfGLP-2. 95% CI: zfGLP-1 0.24–0.80; hGLP-1 0.65–1.63; zf glucagon 0.20–2.9; h glucagon 0.18–1.63; exendin-4 0.07–0.46; zfGLP-2 16.8–72.6
Procedure: The ability of different peptides to stimulate the increase in intracellular cAMP levels following their binding to the recombinant zfGPCR transiently expressed in COS-7 cells was measured using methods that we developed for non-mammalian G-protein coupled receptors. In brief, COS-7 cells were grown to confluence in 100-mm plates at 37°C and transfected with the pcDNA3 vector containing the recombinant zfGPCR using the TransFast transfection reagent (Promega, Madison, WI) at a […] of plasmid DNA (25 ug) to transfection reagent (75 μL). After 24 h cells were trypsynized and transferred to 24-well plates (Biocore, Becton-Dickinson, Franklin Lakes, NJ). Peptides (pM-μM) were added 24–48 h later. Cells were equilibrated prior to the addition of peptides with the assay buffer (DMEM, 0.5% BSA, 20mM HEPES, 1mM 1-methyl-3-isobutylxanthine, 0.1mM phenylmethylsulfonyl fluoride, pH 7.4) for 20 min at 37°C. Each peptide concentration was added in triplicate wells for 20 min at 37°C. cAMP dose-response curves for each tested peptide were obtained in a single 24-well plate. In all experiments, forskolin (100 nM) (Sigma-Aldrich, St.Louis, MO) was added as a positive control, also in triplicate wells, in the same 24-well plate as the tested peptide. After incubation, the media was removed and cells were lysed by the addition of cold ethanol (1 mL per well). Cell debris was pelleted by centrifugation (10,000 g) for 10-min, and supernatants were dried using a vacuum concentrator. Samples were resuspended in an assay buffer provided by the manufacturer and cAMP levels were quantified by the enzyme immunoassay kit (Cayman Chemicals, Ann Arbor, MI) according to the manufacturer’s instructions. The basal concentration of cAMP (in the absence of peptides) was taken as 1.00, and was in the range of 9–16 pmol/well. Results are presented as a fold-increase over basal.
Results were plotted by the Origin 9 software (OriginLab), and EC50 values were calculated by Prism 4 software as described below.
Results from the functional experiments with recombinant zfGPCR transiently expressed in COS-7 cells were analyzed by the Prism 4 software using a four-parameter logistic sigmoidal curve fit model. Data points represent mean +/- SEM.
They are shown together with the 95% confidence intervals (CIs).
Comparison of EC50 values calculated from the zfGLP-1 cAMP dose-response curve with the EC50 calculated from the cAMP dose-response curves for each of the tested peptides were performed by the F-test from the Prism 4 software which compares the fitted mid-point (EC50) from the data sets of the two dose-response curves under comparison. Conditions of analysis were as follows: (i) in the normalization step y = 0% was set to be 1 (the basal cAMP concentration taken as 1); y = 100% was set to be the largest value in each data set; (ii) constrained curve-fit parameters were set to be equal to 0.00 on the bottom, 100 on top; (iii) EC50 was not constrained; (iv) the selected option in the non-linear regression curve fit was intended on finding out whether the best-fit of a selected parameter (EC50) differs between two sets.

[2] = system: hGLP-1R mutant Asn318 to alanine; design: method as in PMID 23479653; conditions: Asn318 mutated to alanine, cell surface expression unchanged; cited from earlier work

In the case of “exendin-4: peptide exclusively found in the saliva of a lizard; agonist of GLP-1R; purchased from Bachem”, the EC50 [1] is given as 0.18 nM and the receptor affinity [2] is given as “reduced the receptor’s affinity”.
